The results in this text go back to patent US12692254B2, “Benzimidazole inhibitors of PAD enzymes” (BRISTOL-MYERS SQUIBB COMPANY, priority 2018, dated 2026).

This assay deals with human PAD4 (hPAD4) (Homo sapiens, UniProt Q9UM07). Briefly: RFMS human PAD4 functional assay (rapid-fire mass spectrum). Type of assay: biochemical. The note with it: 5 nM hPAD4 enzyme, 250 μM BAEE, 50 μM Calcium; 30 min preincubation, 90 min reaction at 37° C. Put shortly:
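PAD4 (10 nM) preincubated 30 min with compound (top final 50 μM), then BAEE substrate added in pH 7.5 HEPES buffer with DTT, 50 μM calcium, TPEN; 90 min at 37° C. After TCA quench, citrulline derivatized with phenyl glyoxal (4 mM final, 30 min, 37° C) and quantified by RapidFire MS against internal standard.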

Chain of human PAD4 (hPAD4) (Q9UM07 whole entry): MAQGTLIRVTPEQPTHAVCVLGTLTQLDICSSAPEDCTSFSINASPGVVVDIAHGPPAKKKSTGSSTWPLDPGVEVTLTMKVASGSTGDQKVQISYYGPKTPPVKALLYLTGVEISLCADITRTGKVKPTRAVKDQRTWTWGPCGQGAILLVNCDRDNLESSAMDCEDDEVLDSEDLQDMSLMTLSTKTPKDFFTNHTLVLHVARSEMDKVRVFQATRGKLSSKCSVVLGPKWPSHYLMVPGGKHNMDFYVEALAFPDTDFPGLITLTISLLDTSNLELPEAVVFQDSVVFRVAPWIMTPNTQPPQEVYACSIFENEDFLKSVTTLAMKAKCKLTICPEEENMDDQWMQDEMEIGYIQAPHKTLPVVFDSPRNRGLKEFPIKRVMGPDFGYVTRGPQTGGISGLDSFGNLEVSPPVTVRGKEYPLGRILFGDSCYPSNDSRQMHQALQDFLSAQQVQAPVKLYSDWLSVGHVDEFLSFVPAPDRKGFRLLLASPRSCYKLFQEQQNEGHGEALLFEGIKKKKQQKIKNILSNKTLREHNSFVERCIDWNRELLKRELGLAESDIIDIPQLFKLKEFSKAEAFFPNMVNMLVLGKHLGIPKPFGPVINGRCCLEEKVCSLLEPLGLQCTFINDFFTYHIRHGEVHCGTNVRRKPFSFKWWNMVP

On to `COc1cc(C(=O)N2C[C@H]3CC[C@@H]2[C@@H]3N)cc2nc(-c3cc4cccnc4n3CC3CC3)n(C3CN(C(=O)c4ccnc(O)c4)C3)c12` [Example 190, 4-(3-{5-[(1R,4R,7R)-7-amino-2-azabicyclo[2.2.1]heptane-2-carbonyl]-2-[1-(cyclopropylmethyl)-1H-pyrrolo[2,3-b]pyridin-2-yl]-7-methoxy-1H-1,3-benzodiazol-1-yl}azetidine-1-carbonyl)pyridin-2-ol], for which the IC50 stood at 782 nM.
The same measure for `COc1cc(C(=O)N2C[C@H]3CC[C@@H]2[C@@H]3N)cc2nc(-c3cc4cccnc4n3CC3CC3)n(CC3CN(C(=O)c4ccc(Cl)nc4)C3)c12` [Example 120, (1R,4R,7R)-2-(1-{[1-(6-chloropyridine-3-carbonyl)azetidin-3-yl]methyl}-2-[1-(cyclopropylmethyl)-1H-pyrrolo[2,3-b]pyridin-2-yl]-7-methoxy-1H-1,3-benzodiazole-5-carbonyl)-2-azabicyclo[2.2.1]heptan-7-amine]: 73 nM; for `COc1cc(C(=O)N2CC3CCC2[C@@H]3N)cc2nc(-c3cc4cccnc4n3CC3CC3)n(Cc3cnn(-c4cccc(C)n4)c3)c12` (stereo partly drawn) [Example 355, (7R)-2-{2-[1-(cyclopropylmethyl)-1H-pyrrolo[2,3-b]pyridin-2-yl]-7-methoxy-1-{[1-(6-methylpyridin-2-yl)-1H-pyrazol-4-yl]methyl}-1H-1,3-benzodiazole-5-carbonyl}-2-azabicyclo[2.2.1]heptan-7-amine]: 22 nM; for `COc1cc(C(=O)N2C[C@H](N)C[C@@H](F)C2)cc2nc(-c3cc4ccccc4n3CC3CC3)n(Cc3cn[nH]c3)c12` [Example 266, (3R,5R)-1-{2-[1-(cyclopropylmethyl)-1H-indol-2-yl]-7-methoxy-1-[(1H-pyrazol-4-yl)methyl]-1H-1,3-benzodiazole-5-carbonyl}-5-fluoropiperidin-3-amine]: 82 nM.
The same measure for `COc1cc(C(=O)N2CC3CCC2[C@@H]3N)cc2nc(-c3cc4cccnc4n3CC3CC3)n(Cc3cnn(-c4ccc(F)cn4)c3)c12` (stereo partly drawn) [Example 371, (7R)-2-{2-[1-(cyclopropylmethyl)-1H-pyrrolo[2,3-b]pyridin-2-yl]-1-{[1-(5-fluoropyridin-2-yl)-1H-pyrazol-4-yl]methyl}-7-methoxy-1H-1,3-benzodiazole-5-carbonyl}-2-azabicyclo[2.2.1]heptan-7-amine]: 30 nM; for `COc1cc(C(=O)N2C[C@H]3CC[C@@H]2[C@@H]3N)cc2nc(-c3cc4cccnc4n3CC3CC3)n(C3CN(C(=O)c4ccnc(Cl)n4)C3)c12` [Example 94, (1R,4R,7R)-2-{1-[1-(2-chloropyrimidine-4-carbonyl)azetidin-3-yl]-2-[1-(cyclopropylmethyl)-1H-pyrrolo[2,3-b]pyridin-2-yl]-7-methoxy-1H-1,3-benzodiazole-5-carbonyl}-2-azabicyclo[2.2.1]heptan-7-amine]: 34 nM.
The result for `COc1cc(C(=O)N2C[C@H](N)C[C@@H](F)C2)cc2nc(-c3cc4ccccc4n3CC3CC3)n(Cc3cnn(C)c3C)c12` [Example 506, (3R,5R)-1-{2-[1-(cyclopropylmethyl)-1H-indol-2-yl]-1-[(1,5-dimethyl-1H-pyrazol-4-yl)methyl]-7-methoxy-1H-1,3-benzodiazole-5-carbonyl}-5-fluoropiperidin-3-amine] reads 225 nM; that for `COc1cc(C(=O)N2C[C@H]3CC[C@@H]2[C@@H]3N)cc2nc(-c3cc4ccccc4n3CC3CC3)n(CC3CN(C(=O)c4ccccc4Cl)C3)c12` [Example 146, (1R,4R,7R)-2-(1-{[1-(2-chlorobenzoyl)azetidin-3-yl]methyl}-2-[1-(cyclopropylmethyl)-1H-indol-2-yl]-7-methoxy-1H-1,3-benzodiazole-5-carbonyl)-2-azabicyclo[2.2.1]heptan-7-amine], 18 nM.
`COc1cc(C(=O)N2C[C@H]3CC[C@@H]2[C@@H]3N)cc2nc(-c3cc4ccccc4n3CC3CC3)n(CCC3CCS(=O)(=O)CC3)c12` [Example 245, ((1R,4R,7R)-7-amino-2-azabicyclo[2.2.1]heptan-2-yl)(2-(1-(cyclopropylmethyl)-1H-indol-2-yl)-1-(2-(1,1-dioxidotetrahydro-2H-thiopyran-4-yl)ethyl)-7-methoxy-1H-benzo[d]imidazol-5-yl)methanone]: the IC50 turned out to be 20 nM.
The same measure for `COc1cc(C(=O)N2C[C@H]3CC[C@@H]2[C@@H]3N)cc2nc(-c3cc4cccnc4n3CC3CC3)n(C[C@@H]3CCN(c4ccnc(C)n4)C3)c12` [Example 216, (1R,4R,7R)-2-{2-[1-(cyclopropylmethyl)-1H-pyrrolo[2,3-b]pyridin-2-yl]-7-methoxy-1-{[(3R)-1-(2-methylpyrimidin-4-yl)pyrrolidin-3-yl]methyl}-1H-1,3-benzodiazole-5-carbonyl}-2-azabicyclo[2.2.1]heptan-7-amine]: 153 nM; for `COc1cc(C(=O)N2C[C@H](N)C[C@@H](F)C2)cc2nc(-c3cc4cccnc4n3CC3CC3)n(CC3(C)CN(C(=O)c4ccccc4)C3)c12` [Example 469, (3R,5R)-1-{1-[(1-benzoyl-3-methylazetidin-3-yl)methyl]-2-[1-(cyclopropylmethyl)-1H-pyrrolo[2,3-b]pyridin-2-yl]-7-methoxy-1H-1,3-benzodiazole-5-carbonyl}-5-fluoropiperidin-3-amine]: 129 nM; for `COc1cc(C(=O)N2C[C@H]3CC[C@@H]2[C@@H]3N)cc2nc(-c3cc4cccnc4n3CC3CC3)n(C[C@H]3CCN(c4cncc(C#N)c4)C3)c12` [Example 195, 5-[(3S)-3-({5-[(1R,4R,7R)-7-amino-2-azabicyclo[2.2.1]heptane-2-carbonyl]-2-[1-(cyclopropylmethyl)-1H-pyrrolo[2,3-b]pyridin-2-yl]-7-methoxy-1H-1,3-benzodiazol-1-yl}methyl)pyrrolidin-1-yl]pyridine-3-carbonitrile]: 14 nM.
The result for `COc1cc(C(=O)N2CC3CCC2[C@@H]3N)cc2nc(-c3cc4cccnc4n3CC3CC3)n(Cc3nc[nH]n3)c12` (stereo partly drawn) [Example 509, (7R)-2-{2-[1-(cyclopropylmethyl)-1H-pyrrolo[2,3-b]pyridin-2-yl]-7-methoxy-1-[(1H-l,2,4-triazol-3-yl)methyl]-1H-1,3-benzodiazole-5-carbonyl}-2-azabicyclo[2.2.1]heptan-7-amine] reads 300 nM.
The result for `Cn1cc(Cn2c(-c3cc4ccccc4n3CC3CC3)nc3cc(C(=O)N4CC5CCC4[C@@H]5N)cc(F)c32)cn1` (stereo partly drawn) [Example 483, (7R)-2-{2-[1-(cyclopropylmethyl)-1H-indol-2-yl]-7-fluoro-1-[(1-methyl-1H-pyrazol-4-yl)methyl]-1H-1,3-benzodiazole-5-carbonyl}-2-azabicyclo[2.2.1]heptan-7-amine] reads 30 nM; that for `COc1cc(C(=O)N2C[C@H]3CC[C@@H]2[C@@H]3N)cc2nc(-c3cc4cccnc4n3CC3CC3)n(CC3CCN(C(=O)c4ccnc(C)n4)CC3)c12` [Example 199, (1R,4R,7R)-2-{2-[1-(cyclopropylmethyl)-1H-pyrrolo[2,3-b]pyridin-2-yl]-7-methoxy-1-{[1-(2-methylpyrimidine-4-carbonyl)piperidin-4-yl]methyl}-1H-1,3-benzodiazole-5-carbonyl}-2-azabicyclo[2.2.1]heptan-7-amine], 162 nM.
On to `COc1cc(C(=O)N2CC3CCC2[C@@H]3N)cc2nc(-c3cc4cccnc4n3CC3CC3)n(CC3CN(C(=O)c4ccccc4F)C3)c12` (stereo partly drawn) [Example 442, (7R)-2-{2-[1-(cyclopropylmethyl)-1H-pyrrolo[2,3-b]pyridin-2-yl]-1-{[1-(2-fluorobenzoyl)azetidin-3-yl]methyl}-7-methoxy-1H-1,3-benzodiazole-5-carbonyl}-2-azabicyclo[2.2.1]heptan-7-amine], for which the IC50 amounted to 39 nM.
The result for `COc1cc(C(=O)N2CC3CCC2[C@@H]3N)cc2nc(-c3cc4cccnc4n3CC3CC3)n(C3CN(S(=O)(=O)C(F)(F)F)C3)c12` (stereo partly drawn) [Example 340, (1R,,4R,7R)-2-{2-[1-(cyclopropylmethyl)-1H-pyrrolo[2,3-b]pyridin-2-yl]-7-methoxy-1-(1-trifluoromethanesulfonylazetidin-3-yl)-1H-1,3-benzodiazole-5-carbonyl}-2-azabicyclo[2.2.1]heptan-7-amine] reads 1260 nM; that for `COc1cc(C(=O)N2C[C@H]3CC[C@@H]2[C@@H]3N)cc2nc(-c3cc4cccnc4n3CC3CC3)n(CC3CN(C(=O)c4ccnc(Cl)c4)C3)c12` [Example 107, (1R,4R,7R)-2-(1-{[1-(2-chloropyridine-4-carbonyl)azetidin-3-yl]methyl}-2-[1-(cyclopropylmethyl)-1H-pyrrolo[2,3-b]pyridin-2-yl]-7-methoxy-1H-1,3-benzodiazole-5-carbonyl)-2-azabicyclo[2.2.1]heptan-7-amine], 33 nM.
The result for `COc1cc(C(=O)N2CC3CCC2[C@@H]3N)cc2nc(-c3cc4ccccc4n3C)n(Cc3cnn(C)c3)c12` (stereo partly drawn) [Example 513, (7R)-2-[7-methoxy-2-(1-methyl-1H-indol-2-yl)-1-[(1-methyl-1H-pyrazol-4-yl)methyl]-1H-1,3-benzodiazole-5-carbonyl]-2-azabicyclo[2.2.1]heptan-7-amine] reads 391 nM; that for `COc1cc(C(=O)N2C[C@H]3CC[C@@H]2[C@@H]3N)cc2nc(-c3cc4cccnc4n3C)n(C[C@H]3CCN(c4ccnc(C)n4)C3)c12` [Example 213, (1R,4R,7R)-2-(7-methoxy-2-{1-methyl-1H-pyrrolo[2,3-b]pyridin-2-yl}-1-{[(3S)-1-(2-methylpyrimidin-4-yl)pyrrolidin-3-yl]methyl}-1H-1,3-benzodiazole-5-carbonyl)-2-azabicyclo[2.2.1]heptan-7-amine], 99 nM; that for `COc1cc(C(=O)N2C[C@H](N)C[C@@H](F)C2)cc2nc(-c3cc4ccccc4n3CC3CC3)n(CCC3CCS(=O)(=O)CC3)c12` [Example 249, ((3R,5R)-3-amino-5-fluoropiperidin-1-yl)(2-(1-(cyclopropylmethyl)-1H-indol-2-yl)-1-(2-(1,1-dioxidotetrahydro-2H-thiopyran-4-yl)ethyl)-7-methoxy-1H-benzo[d]imidazol-5-yl)methanone], 35 nM.
